pKi: −log10 of the molar value.
Target: full-length ATR (Homo sapiens (Human), UniProt Q13535)
Experiment: ATR Inhibition Assay (radioactive-phosphate incorporation)
Assay type: biochemical
Conditions: read-out: ATR Ki
How it was run: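 Ki(app) was derived by non-linear regression of background-corrected initial rates of 33P incorporation into an 800 μM target peptide, read by phosphocellulose filter scintillation counting. Reaction conditions: 5 nM full-length ATR, 10 μM [γ-33P]ATP, pH 7.5 Tris buffer with MgCl2 and DTT, 25 °C, 10-min preincubation, 24 h run.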

Chain of full-length ATR (Q13535 whole entry): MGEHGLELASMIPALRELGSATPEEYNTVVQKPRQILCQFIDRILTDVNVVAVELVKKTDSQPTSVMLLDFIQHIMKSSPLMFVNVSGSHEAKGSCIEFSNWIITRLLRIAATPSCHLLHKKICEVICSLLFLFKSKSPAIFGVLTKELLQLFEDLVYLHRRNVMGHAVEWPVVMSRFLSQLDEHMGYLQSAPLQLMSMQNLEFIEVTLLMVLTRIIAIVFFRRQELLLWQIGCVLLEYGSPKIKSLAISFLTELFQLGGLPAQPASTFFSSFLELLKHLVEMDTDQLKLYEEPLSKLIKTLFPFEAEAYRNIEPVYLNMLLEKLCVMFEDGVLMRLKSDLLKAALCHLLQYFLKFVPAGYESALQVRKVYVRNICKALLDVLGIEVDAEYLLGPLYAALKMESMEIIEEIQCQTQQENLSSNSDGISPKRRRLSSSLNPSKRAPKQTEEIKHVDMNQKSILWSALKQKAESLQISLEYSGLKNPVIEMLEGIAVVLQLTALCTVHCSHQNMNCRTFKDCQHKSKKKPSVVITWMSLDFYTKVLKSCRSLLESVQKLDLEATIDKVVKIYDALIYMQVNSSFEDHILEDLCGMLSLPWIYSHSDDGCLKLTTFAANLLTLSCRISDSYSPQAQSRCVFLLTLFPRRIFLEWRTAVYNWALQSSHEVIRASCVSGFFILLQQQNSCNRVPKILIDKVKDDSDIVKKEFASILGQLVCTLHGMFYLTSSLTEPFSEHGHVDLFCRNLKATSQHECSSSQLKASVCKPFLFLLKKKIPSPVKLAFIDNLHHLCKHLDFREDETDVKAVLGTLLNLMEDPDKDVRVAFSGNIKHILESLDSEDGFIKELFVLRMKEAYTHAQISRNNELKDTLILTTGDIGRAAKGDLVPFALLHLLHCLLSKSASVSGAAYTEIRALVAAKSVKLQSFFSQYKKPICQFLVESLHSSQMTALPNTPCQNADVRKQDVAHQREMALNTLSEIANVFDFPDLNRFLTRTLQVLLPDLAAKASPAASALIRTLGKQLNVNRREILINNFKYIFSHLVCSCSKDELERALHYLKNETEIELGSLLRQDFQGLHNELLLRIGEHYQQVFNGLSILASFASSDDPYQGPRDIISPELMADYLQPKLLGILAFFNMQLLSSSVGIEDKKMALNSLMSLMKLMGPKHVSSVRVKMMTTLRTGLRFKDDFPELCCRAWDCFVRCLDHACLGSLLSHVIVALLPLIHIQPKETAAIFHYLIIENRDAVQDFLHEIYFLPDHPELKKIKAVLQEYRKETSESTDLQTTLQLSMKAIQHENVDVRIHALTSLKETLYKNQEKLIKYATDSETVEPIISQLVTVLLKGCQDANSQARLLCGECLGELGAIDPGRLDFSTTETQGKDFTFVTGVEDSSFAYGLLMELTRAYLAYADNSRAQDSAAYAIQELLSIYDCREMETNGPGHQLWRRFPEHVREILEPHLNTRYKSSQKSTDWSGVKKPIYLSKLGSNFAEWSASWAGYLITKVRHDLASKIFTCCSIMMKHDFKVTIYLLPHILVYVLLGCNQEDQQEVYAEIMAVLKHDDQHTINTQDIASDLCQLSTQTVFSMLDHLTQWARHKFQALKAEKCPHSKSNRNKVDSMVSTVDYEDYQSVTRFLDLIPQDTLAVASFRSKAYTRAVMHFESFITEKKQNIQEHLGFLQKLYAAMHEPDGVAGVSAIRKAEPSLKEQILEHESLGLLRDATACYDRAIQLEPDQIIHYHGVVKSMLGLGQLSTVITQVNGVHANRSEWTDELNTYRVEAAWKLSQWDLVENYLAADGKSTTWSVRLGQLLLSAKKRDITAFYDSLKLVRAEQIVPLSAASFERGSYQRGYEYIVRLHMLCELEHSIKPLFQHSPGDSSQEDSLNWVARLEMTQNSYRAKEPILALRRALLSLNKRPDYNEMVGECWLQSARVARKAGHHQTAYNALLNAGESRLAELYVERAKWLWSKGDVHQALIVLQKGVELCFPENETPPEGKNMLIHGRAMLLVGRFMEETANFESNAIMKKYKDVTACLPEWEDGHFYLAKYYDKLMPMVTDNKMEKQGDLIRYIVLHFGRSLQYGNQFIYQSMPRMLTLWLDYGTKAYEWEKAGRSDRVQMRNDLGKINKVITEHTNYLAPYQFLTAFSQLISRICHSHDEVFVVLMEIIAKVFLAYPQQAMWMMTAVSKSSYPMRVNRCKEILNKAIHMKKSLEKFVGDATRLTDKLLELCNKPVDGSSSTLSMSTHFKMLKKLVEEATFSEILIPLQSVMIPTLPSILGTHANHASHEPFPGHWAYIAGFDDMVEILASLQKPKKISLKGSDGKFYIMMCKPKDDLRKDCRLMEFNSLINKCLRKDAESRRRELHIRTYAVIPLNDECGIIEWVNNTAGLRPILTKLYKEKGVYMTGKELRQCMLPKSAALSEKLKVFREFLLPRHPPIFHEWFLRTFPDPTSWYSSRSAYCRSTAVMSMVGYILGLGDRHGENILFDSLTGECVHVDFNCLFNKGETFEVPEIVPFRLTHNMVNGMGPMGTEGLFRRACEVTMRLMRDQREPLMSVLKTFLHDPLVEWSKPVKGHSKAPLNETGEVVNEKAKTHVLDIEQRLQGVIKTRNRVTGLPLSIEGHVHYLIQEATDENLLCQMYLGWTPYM

| Structure (SMILES) | pKi |
| --- | --- |
| Nc1ncc(-c2cccc(C(=O)N3CCNCC3)c2)nc1C(=O)Nc1ccccc1 [Compound I-53, 3-amino-N-phenyl-6-(3-(piperazine-1-carbonyl)phenyl) pyrazine-2-carboxamide] | 5.30 to 7.00 |
| Nc1ncc(-c2cccnc2)nc1C(=O)Nc1ccccc1OC(F)(F)F [Compound I-102, 3-amino-6-(pyridin-3-yl)-N-(2-(trifluoromethoxy)phenyl)pyrazine-2-carboxamide] | 7.00 to 8.00 |
| Nc1ncc(-c2ccc(C(=O)NCCN3CCCC3)cc2)nc1-c1nc2ccccc2[nH]1 [Compound I-152, 4-(5-amino-6-(1H-benzo[d]imidazol-2-yl)pyrazin-2-yl)-N-(2-(pyrrolidin-1-yl)ethyl)benzamide] | 7.00 to 8.00 |
| Nc1ncc(-c2ccccc2)nc1-c1nc2cccc(O)c2[nH]1 [Compound I-113, 2-(3-amino-6-phenylpyrazin-2-yl)-1H-benzo[d]imidazol-7-ol] | 5.30 to 7.00 |
| CS(=O)(=O)Nc1cccc(-c2cnc(N)c(C(=O)Nc3ccccc3)n2)c1 [Compound I-25, 3-amino-6-(3-(methylsulfonamido)phenyl)-N-phenylpyrazine-2-carboxamide] | 7.00 to 8.00 |
| Nc1ncc(-c2ccc(C(=O)N3CCCNCC3)cc2)nc1C(=O)Nc1nc2ccccc2o1 [Compound V-5] | 7.00 to 8.00 |
| Nc1ncc(-c2ccc(C(=O)N3CCCNCC3)cc2)nc1C(=O)Nc1ccc2cn[nH]c2c1 [Compound V-4] | 7.00 to 8.00 |
| Cn1c(NC(=O)c2nc(-c3ccc(C(=O)N4CCCNCC4)cc3)cnc2N)nc2ccccc21 [Compound V-7] | 5.30 to 7.00 |
| Nc1ncc(-c2cccc(C(=O)N3CCC(CO)CC3)c2)nc1C(=O)Nc1ccccc1 [Compound I-50, 3-amino-6-(3-(4-(hydroxymethyl)piperidine-1-carbonyl)phenyl)-N-phenylpyrazine-2-carboxamide] | 5.30 to 7.00 |
| CN1CCN(C(=O)c2ccc(-c3cnc(N)c(C(=O)Nc4ccccc4)n3)cc2)CC1 [Compound I-73, 3-amino-6-(4-(4-methylpiperazine-1-carbonyl)phenyl)-N-phenylpyrazine-2-carboxamide] | 7.00 to 8.00 |
| Nc1ncc(-c2ccc(C(=O)N3CCCNCC3)cc2)nc1C(=O)Nc1ccccc1 [Compound I-43, 6-(4-(1,4-diazepane-1-carbonyl)phenyl)-3-amino-N-phenylpyrazine-2-carboxamide] | 7.00 to 8.00 |
| CN(C)CCN(C)C(=O)c1cccc(-c2cnc(N)c(C(=O)Nc3ccccc3)n2)c1 [Compound I-52, 3-amino-6-(3-((2-(dimethylamino)ethyl)(methyl)carbamoyl)phenyl)-N-phenylpyrazine-2-carboxamide] | 5.30 to 7.00 |
| Nc1ncc(-c2cccc(C(=O)N3CCOCC3)c2)nc1C(=O)Nc1ccccc1 [Compound I-20, 3-amino-6-(3-(morpholine-4-carbonyl)phenyl)-N-phenylpyrazine-2-carboxamide] | 7.00 to 8.00 |
| COc1ccc(NC(C)=O)cc1NC(=O)c1nc(-c2cccnc2)cnc1N [Compound I-100, 3-amino-N-(5-ethanamido-2-methoxyphenyl)-6-(pyridin-3-yl)pyrazine-2-carboxamide] | 5.30 to 7.00 |
| Nc1ncc(-c2ccc(C(=O)NCCCO)cc2)nc1-c1nc2ccccc2[nH]1 [Compound I-128, 4-(5-amino-6-(1H-benzo[d]imidazol-2-yl)pyrazin-2-yl)-N-(3-hydroxypropyl)benzamide] | 7.00 to 8.00 |
| Nc1ncc(-c2cccc(C(=O)NCCN3CCCCC3)c2)nc1C(=O)Nc1ccccc1 [Compound I-61, 3-amino-N-phenyl-6-(3-(2-(piperidin-1-yl)ethylcarbamoyl)phenyl) pyrazine-2-carboxamide] | 5.30 to 7.00 |

Continued, values first:

| pKi | Structure (SMILES) |
| --- | --- |
| ≥ 8.00 | Cc1ccsc1-c1nnc(-c2nc(-c3ccccc3[S+](C)[O-])cnc2N)o1 (centres unmarked) [IA-179, 5-(2-methylsulfinylphenyl)-3-[5-(3-methyl-2-thienyl)-1,3,4-oxadiazol-2-yl]pyrazin-2-amine] |
| ≥ 8.00 | CN(C)C(=O)c1ccc(-c2cnc(N)c(-c3nnc(-c4ccccc4F)o3)n2)cc1 [IA-30] |
| 7.00 to 8.00 | CN(C)C(=O)c1ccc(-c2cnc(N)c(-c3nnc(-c4cccnc4)o3)n2)cc1 [IA-41] |
| ≥ 8.00 | CN(C)C(=O)c1ccc(-c2cnc(N)c(-c3nnc(-c4ccc(CN)cc4)o3)n2)cc1 [IA-234, 4-[5-amino-6-[5-[4-(aminomethyl)phenyl]-1,3,4-oxadiazol-2-yl]pyrazin-2-yl]-N,N-dimethyl-benzamide] |
| ≥ 8.00 | C#Cc1nnc(-c2nc(-c3ccc(S(=O)(=O)C(C)C)cc3)cnc2N)o1 [IA-258, 3-(5-ethynyl-1,3,4-oxadiazol-2-yl)-5-(4-isopropylsulfonylphenyl)pyrazin-2-amine] |
| 7.00 to 8.00 | Cc1ncccc1NC(=O)c1nc(-c2ccc(S(C)(=O)=O)cc2)cnc1N [VII-5] |
| 7.00 to 8.00 | CCn1cc(-c2cnc(N)c(-c3nnc(-c4ccccc4)o3)n2)cn1 [IA-210, 5-(1-ethylpyrazol-4-yl)-3-(5-phenyl-1,3,4-oxadiazol-2-yl)pyrazin-2-amine] |
| 7.00 to 8.00 | CN(C)C(=O)c1ccc(-c2cnc(N)c(-c3nnc(-c4ccccc4OCCN)o3)n2)cc1 [IA-213, 4-[5-amino-6-[5-[2-(2-aminoethoxy)phenyl]-1,3,4-oxadiazol-2-yl]pyrazin-2-yl]-N,N-dimethyl-benzamide] |
| 5.30 to 7.00 | CN(C)C(=O)c1ccc(-c2cnc(N)c(-c3nnc(NC(=O)c4ccccc4)o3)n2)cc1 [IA-287, 4-[5-amino-6-(5-benzamido-1,3,4-oxadiazol-2-yl)pyrazin-2-yl]-N,N-dimethyl-benzamide] |
| ≥ 8.00 | CNCc1ccc(-c2nnc(-c3nc(-c4ccc(S(=O)(=O)C(C)CCO)cc4)cnc3N)o2)cc1 (centres unmarked) [IA-88, 3-[4-[5-amino-6-[5-[4-(methylaminomethyl)phenyl]-1,3,4-oxadiazol-2-yl]pyrazin-2-yl]phenyl]sulfonylbutan-1-ol] |
| 5.30 to 7.00 | NCCSc1ccccc1-c1cnc(N)c(-c2nnc(-c3ccccc3)o2)n1 [IA-224, 5-(2-(2-aminoethylthio)phenyl)-3-(5-phenyl-1,3,4-oxadiazol-2-yl)pyrazin-2-amine] |
| 5.30 to 7.00 | CN(C)c1ccccc1-c1cnc(N)c(-c2nnc(-c3ccccc3)o2)n1 [IA-94, 5-(2-(dimethylamino)phenyl)-3-(5-phenyl-1,3,4-oxadiazol-2-yl)pyrazin-2-amine] |
| 7.00 to 8.00 | CN(C)C(=O)c1ccc(-c2cnc(N)c(-c3nnc(Nc4ccccc4)o3)n2)cc1 [IA-32] |
| 7.00 to 8.00 | CN(C)C(=O)c1ccc(-c2cnc(N)c(-c3nnc(-c4ccncc4)o3)n2)cc1 [IA-67] |
| 5.30 to 7.00 | Cc1cc(NC(=O)c2nc(-c3ccc(S(C)(=O)=O)cc3)cnc2N)n(C)n1 [VII-3] |
| 7.00 to 8.00 | COc1cccc(-c2nnc(-c3nc(-c4ccc(C(=O)N(C)C)cc4)cnc3N)o2)c1 [IA-195, 4-[5-amino-6-[5-(3-methoxyphenyl)-1,3,4-oxadiazol-2-yl]pyrazin-2-yl]-N,N-dimethyl-benzamide] |
| 5.30 to 7.00 | CN(C)C(=O)c1ccccc1-c1cnc(N)c(-c2nnc(-c3ccccc3)o2)n1 [IA-244, 2-[5-amino-6-(5-phenyl-1,3,4-oxadiazol-2-yl)pyrazin-2-yl]-N,N-dimethyl-benzamide] |
| 7.00 to 8.00 | CNCc1ccc(NC(=O)c2nc(-c3ccc(S(=O)(=O)C(C)C)cc3)cnc2N)cc1 [VII-11] |
| ≥ 8.00 | Nc1ncc(-c2ccncc2)nc1-c1nnc(-c2ccccc2)o1 [IA-60] |
